Publication PMC4117522, “Proteasome Inhibitors Alter Levels of Intracellular Peptides in HEK293T and SH-SY5Y Cells” (PLoS ONE, 2014)

Legend:
[1] = target: T1, Blm10-activated 20S core particle (Saccharomyces cerevisiae, UniProt P23724+P30656); assay: Chymotryptic-like activity of purified yeast Blm10-20S (Suc-Leu-Leu-Val-Tyr-AMC); format: biochemical; details: in the absence of ATP
T1 construct: various proteasome forms purified from yeast; made in house; host or cells: yeast
Protocol: (§1) Proteasome activity was quantified by measuring the kinetics of fluorescence release (380 nm excitation, 460 nm emission). Fluorescence was measured at an interval of 30 seconds for 30 minutes with 5 seconds of mixing prior to each cycle. Proteasomes were purified as described previously, [35].
(§2) After incubation for 15 minutes, enzyme activity was measured by monitoring the fluorescence kinetics for the next 30 minutes. […] Enzyme activity is expressed as percent control without inhibitor. Error bars show standard error of the mean; error bars smaller than symbol size are not visible.

[2] = target: T2, recombinant human puromycin-sensitive aminopeptidase (PSAP, rhNPEPPS) (Homo sapiens, UniProt P55786); assay: Cleavage of Leu-AMC and Ala-AMC by purified recombinant PSAP; format: biochemical; details: 10 µM inhibitor, Ala-AMC
T2 construct: purchased R&D Systems
Protocol: To measure the effect of inhibitors on cleavage of Leu-AMC and Ala-AMC by purified PSAP, recombinant human PSAP (rhNPEPPS, R&D Systems) was diluted 1∶2000 in Buffer 2 containing 0.1 mg/ml BSA. The enzyme was pre-incubated with the inhibitor and Buffers 1 or 2, followed by addition of 100 µM final concentration of Leu-AMC (to the mix containing Buffer 1) and Ala-AMC (to the mix containing Buffer 2). After incubation at 37°C for 1 hour, PSAP activity was quantified by fluorescence measurement of the substrate (380 nm excitation, 460 nm emission).
(§3) Figure 7 Effect of aminopeptidase inhibitors on Ala-AMC and Leu-AMC cleavage. HEK 293T cell extract (panels A–D) or recombinant PSAP (panels E–F) were treated with increasing concentrations of bestatin or puromycin for 30 minutes followed by the addition of substrate and incubation for 1 hour. Enzyme activity was determined by fluorescence measurement of AMC and expressed as percentage enzyme activity relative to the control without inhibitor. (A) Bestatin inhibition of HEK293T cell extract assayed with Ala-AMC. (B) Bestatin inhibition of HEK293T cell extract assayed with Leu-AMC. (C) Puromycin inhibition of HEK293T cell extract assayed with Ala-AMC. (D) Puromycin inhibition of HEK293T cell extract assayed with Leu-AMC. (E) Puromycin inhibition of purified PSAP assayed with Ala-AMC. (F) Puromycin inhibition of purified PSAP assayed with Leu-AMC. Error bars show standard error of mean (n = 4), points without error bars had error ranges smaller than the symbol size. Statistical analysis was performed using Student’s t-test: *, p≤0.05; **, p≤0.01; ***, p≤0.001; ns, no significant difference (p>0.05) versus the control.
(§4) Figure 8 Effect of proteasome inhibitors on Ala-AMC and Leu-AMC cleavage. HEK 293T cell extract or recombinant PSAP was treated with 10 µM of each of the proteasome inhibitors for 1 hour in addition to a 30 min pre-incubation without the substrate. Enzyme activity was determined by fluorescence measurement of AMC and expressed as percentage enzyme activity relative to the control without inhibitor. Panels A and B represent the effect of proteasome inhibitors on cleavage of Ala-AMC and Leu-AMC respectively, in HEK293T cell extract. […] Error bars show standard error of mean (n = 4). Statistical analysis was performed using Student’s t-test: *, p≤0.05; **, p≤0.01; ***, p≤0.001; ns, no significant difference (p>0.05) versus the control.

[3] = tested on: open gate mutant of the 20S core particle; assay: Chymotryptic-like activity of open gate mutant of yeast 20S (Suc-Leu-Leu-Val-Tyr-AMC); format: biochemical; details: in the absence of ATP
Protocol: as §1, §2

[4] = target: T3, 20S proteasome core particle (Saccharomyces cerevisiae, UniProt P23724+P30656); assay: Chymotryptic-like activity of purified yeast 20S core particle (Suc-Leu-Leu-Val-Tyr-AMC); format: biochemical
T3 construct: various proteasome forms purified from yeast; made in house; host or cells: yeast
Protocol: as §1, §2

SH-SY5Y cells = details: cited from earlier work
[5] = tested on: HEK293T cell aminopeptidase activity (Ala-AMC cleavage); assay: Aminopeptidase assay with Ala-AMC in HEK293T cell extracts; format: biochemical, human; details: HEK293T cell extract; for Enzyme activity (% control with no inhibitor): Ala-AMC
Protocol: (§5) All enzyme assays described below were performed in the linear range of the assay, as determined from time-course studies. HEK293T cells were lysed by sonication in 50 mM TrisHCl buffer, pH 7.5, containing 40 mM KCl, 5 mM MgCl2, 0.5 mM ATP, and 1 mM DTT (Buffer 1).
(§6) To measure TPP2, the fluorescent substrate was Ala-Ala-Phe-AMC. Aminopeptidase (AP) assays were performed with Leu-AMC and Ala-AMC, which detect leucine aminopeptidase (LAP), puromycin-sensitive aminopeptidase (PSAP), and other enzymes. To measure the effect of aminopeptidase/proteasome inhibitors on cleavage of Ala-Ala-Phe-AMC and Leu-AMC, 1∶50 dilution of the cell extract was pre-incubated with the inhibitor and Buffer 1 for 30 min, followed by addition of 100 µM final concentration of the respective substrate. For Ala-AMC, the same dilution of the cell extract was pre-incubated with the inhibitor and 50 mM MOPS buffer, pH 7.5, containing 40 mM KCl, 5 mM MgCl2, 0.5 mM ATP, and 1 mM DTT (Buffer 2), followed by addition of 100 µM final concentration of the substrate. After incubation at 37°C for 1 hour, enzyme activity was quantified by fluorescence measurement of the substrate (380 nm excitation, 460 nm emission).
as §3, §4

[6] = tested on: HEK293T cell aminopeptidase activity (Leu-AMC cleavage); assay: Aminopeptidase assay with Leu-AMC in HEK293T cell extracts; format: biochemical, human; details: HEK293T cell extract, 10 µM inhibitor
Protocol: as §5, §6, §3, §4

HEK293T cells = details: HEK293T cells; cited from earlier work
[7] = tested on: tripeptidyl peptidase 2 (TPP2); assay: Ala-Ala-Phe-AMC cleavage (TPP2 substrate) in HEK293T cell extracts; format: biochemical, human; details: HEK293T cell extract, up to 5 µM
Protocol: as §5, §6
Enzyme activity was determined by fluorescence measurement of AMC and expressed as percentage enzyme activity relative to the control lacking inhibitor. […]

26S proteasome = 26S proteasome (Saccharomyces cerevisiae, UniProt P23724+P30656); assay: Chymotryptic-like activity of purified yeast 26S proteasome (Suc-Leu-Leu-Val-Tyr-AMC); format: biochemical; details: in the presence of ATP
Protocol: as §1, §2

T2 sequence (P55786 whole entry): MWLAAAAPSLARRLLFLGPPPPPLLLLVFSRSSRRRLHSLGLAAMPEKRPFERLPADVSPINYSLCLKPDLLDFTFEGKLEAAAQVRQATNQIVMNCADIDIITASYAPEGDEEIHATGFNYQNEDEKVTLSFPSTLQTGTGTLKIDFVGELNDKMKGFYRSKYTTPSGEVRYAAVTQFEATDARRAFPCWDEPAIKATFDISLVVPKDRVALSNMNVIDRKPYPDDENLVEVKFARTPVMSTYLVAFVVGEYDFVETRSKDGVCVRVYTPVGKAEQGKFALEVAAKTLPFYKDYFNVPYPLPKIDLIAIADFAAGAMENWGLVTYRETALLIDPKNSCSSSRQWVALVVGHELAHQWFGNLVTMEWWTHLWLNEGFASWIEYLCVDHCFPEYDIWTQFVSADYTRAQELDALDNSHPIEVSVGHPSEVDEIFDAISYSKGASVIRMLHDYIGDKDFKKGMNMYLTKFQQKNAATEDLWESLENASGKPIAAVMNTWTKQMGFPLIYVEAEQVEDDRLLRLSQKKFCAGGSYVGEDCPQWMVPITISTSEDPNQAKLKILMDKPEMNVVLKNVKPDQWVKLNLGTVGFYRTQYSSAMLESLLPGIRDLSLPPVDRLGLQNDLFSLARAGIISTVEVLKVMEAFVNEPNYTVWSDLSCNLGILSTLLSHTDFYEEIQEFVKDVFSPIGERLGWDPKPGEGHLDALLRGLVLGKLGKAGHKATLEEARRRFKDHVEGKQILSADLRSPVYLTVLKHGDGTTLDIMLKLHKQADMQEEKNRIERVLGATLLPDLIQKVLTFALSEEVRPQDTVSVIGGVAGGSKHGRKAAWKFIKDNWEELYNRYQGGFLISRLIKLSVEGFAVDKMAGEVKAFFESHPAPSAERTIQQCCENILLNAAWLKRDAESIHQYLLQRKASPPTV

CC(C)C[C@H](NC(=O)[C@H](Cc1ccccc1)NC(=O)c1cnccn1)B(O)O [bortezomib]
inhibition of chymotryptic-like activity, compared among 20S forms [1]: comparable potency
effect on cleavage of Ala-AMC by purified PSAP [2]: no significant effect
inhibition of chymotryptic-like activity, compared among 20S forms [3]: comparable potency
inhibition of chymotryptic-like activity, compared among 20S forms ([4]; in the absence of ATP): comparable potency
inhibition of chymotryptic-like activity, 20S compared with 26S ([4]; in the presence of ATP): comparable inhibition
change in levels of intracellular peptides (peptidome) (SH-SY5Y cells): increase in the levels of most intracellular peptides
effect on cleavage of Ala-AMC ([5]; 10 µM inhibitor): partially inhibited
Enzyme activity (% control with no inhibitor) ([5]; bestatin 50 µM together with bortezomib 10 µM): 14.8±0.6 % control with no inhibitor
Enzyme activity (% control with no inhibitor) ([5]; bestatin 50 µM together with bortezomib 50 µM): 14.8±0.8 % control with no inhibitor
effect on cleavage of Leu-AMC [6]: partially inhibited
change in levels of intracellular peptides (peptidome) (HEK293T cells): increase in the levels of most intracellular peptides
inhibition of Ala-Ala-Phe-AMC cleavage [7]: did not show significant inhibition
inhibition of chymotryptic-like activity, 26S compared with 20S (26S proteasome): comparable inhibition
